Experiments:
[1] = system: DEHP aptamer-Seq.10 (FAM-labeled) (DNA, aptamer) TTCCGGGCATACGTATCGAATGTTGTGAGCCGTGGGCTGC; experiment: graphene oxide fluorescence assay; details: 37 °C, 1.5 h incubation; graphene oxide:ssDNA mass ratio 100:1; nonlinear regression
[2] = system: aptamer-Seq.10-Cy5 (csa-DEHP aptamer) (DNA, aptamer) TTCCGGGCATACGTATCGAATGTTGTGAGCCGTGGGCTGC; experiment: 1H NMR; details: complex formed in deionized water at 4 °C overnight, dialyzed; amino signals shift 1.9 to 2.3 ppm

Kd [1]: 70 nM
binding [2]: yes
SMILES: CCCCC(CC)COC(=O)c1ccccc1C(=O)OCC(CC)CCCC (centres unmarked)
